We go through 3 compounds from patent publication US8198317B2, “Methylenedioxy phenolic compounds and their use to treat disease” (The Ohio State University Research Foundation, priority 2008, dated 2012).

For one data set, the system named is Cardiovascular Patient. The experiment in a line: Treatment of a patient with acute non-ST elevation myocardial infarction (Examples 11-12). The note with it: 1.0 to 100 mg/kg in the catheterization laboratory. It counts as in vivo, human. The method, then: A person presents with uncomfortable pressure, squeezing and pain in the center of their chest as well as in shoulders, arms, neck, jaw and back for over 4 hours. They also complain of shortness of breath. […] They are given aspirin, clopidogrel, nitrates and IV heparin and taken to the catheterization laboratory. After being evaluated with an angiography, they are diagnosed as suffering from a […] blockage in the left anterior descending coronary artery. The patient is administered a composition comprising an effective amount of 3,4-Methylenedioxy 6-nitro phenyl lipoate (INV-7465) (1.0 to 100 mg/kg) in the catheterization laboratory. Patient reports improvement in the chest pain, shortness of breath. They are again evaluated with an angiography to measure reduced plaque in their arteries.
A person presents with uncomfortable pressure, squeezing and pain in the center of their chest as well as in shoulders, arms, neck, jaw and back for over 4 hours. They also complain of shortness of breath. […] They are given aspirin, clopidogrel, nitrates and IV heparin and taken to the catheterization laboratory. After being evaluated with an angiography, they are diagnosed as suffering from a […] blockage in the left anterior descending coronary artery. […] They are again evaluated with an angiography to measure reduced plaque in their arteries.

The next data set has as its system ICAM-1. The experiment in a line: ELISA of ICAM-1 release from TNF-α stimulated HUVEC. It counts as cell-based, human. Particulars: HUVEC pretreated 24 hours, then 2 ng/mL TNF-α for 6 hours. Here is the method:
(§1) Cell Culture: All experiments were performed with cultured Human Umbilical Vein Endothelial Cells (HUVECs—Gibco, Invitrogen) and grown to confluence at 37° C. in a 5% CO2 humidified incubator, on tissue culture flasks previously coated with 1% gelatin in supplemented culture medium (M199 with 10% heat inactivated fetal calf serum, 100 U/ml penicillin, 100 μg/ml streptomycin, 2 mM glutamine, 10 mM HEPES, pH 7.4, heparin 12 I.U./ml, 1% retinal derived growth factor, Sigma). Following trypsin treatment, the cells were detached from the flasks and final mono-layers were prepared by seeding HUVECs on gelatin-precoated culture plates and then incubated for 24-48 h to ensure confluence. Cells up to the fourth passage were used for all experiments. Recombinant human TNF-α was purchased from R&D Systems (Minneapolis, Minn.).
(§2) Enzyme-Linked Immunosorbent Assay (ELISA): To measure the expression of cell surface adhesion molecules, ELISA technique was utilized (R and D Systems, Minneapolis, Minn.). […]
(§3) Enzyme-Linked Immunosorbent Assay (ELISA) and results: To measure the expression of cell surface adhesion molecules, ELISA technique was utilized. […] The expression of VCAM-1 and ICAM-1 were evaluated after TNF-α stimulation for 6 hours.

The subject of a further data set is VCAM-1. Kind of data set: ELISA of VCAM-1 release from TNF-α stimulated HUVEC. It is filed as cell-based, human. The note with it: HUVEC pretreated 24 hours, then 2 ng/mL TNF-α for 6 hours. The method, then: as §1, §2, §3
Data set [1] deals with Watanabe Heritable Hyperlipidemic Rabbits (WHHL). The experiment in a line: Superoxide by dihydroethidium staining of WHHL aorta sections. It counts as in vivo, rabbit.
Data set [2] relates to Human Umbilical Vein Endothelial Cells (HUVECs). The experiment in a line: MTT cell toxicity assay. It is filed as cell-based. Particulars: HUVEC; for cells displaying toxicity: 24 hours. Here is the method: as §1
Cell Toxicity Assays: Cellular toxicity was assessed by MTT [3-(4,5-dimethylthiazol-2-yl)-2,5-diphenyltetrazolium bromide] assay, a commercially available assay for assessment of cellular viability. INV-75 was added to HUVECs for 24 hours, and toxicity assays were performed at the end of this period. The MTT assay relies on the cellular reduction of positively charged tetrazolium salts to their intensely colored formazan product by mitochondrial dehydrogenases. Formazan production is decreased in the presence of impaired mitochondrial redox function and enhanced free radical production and may, therefore, be used as an index of cell viability responses to experimental interventions.
In short, after removing microtiter plates from the incubator, fresh medium containing a fixed volume of reconstituted MTT [3-(4,5-dimethylthiazol-2-yl)-2,5-diphenyltetrazlium bromide; final concentration: 0.5 mg/ml] was added to the wells; the plates were kept at 37° C. in a 5% CO2 environment for 2 h, and then the MTT solubilization solution provided by the manufacturer was added. The formazan product formed by the conversion of positively charged tetrazolium salts to the reduced state has low aqueous solubility and is present as purple crystals. Dissolving the formazan with a solubilization buffer (provided in kit) permits the convenient quantification of its formation. Optical density at OD 570 nm is then measured for each well on an absorbance plate reader. The within- and between-assay variability was 3 and 5%, respectively. Various concentrations of INV-75 was tested in cell based assays using the MTT assay, as described above. The concentrations tested ranged from 1 mM to 10 nM and the cells were exposed for over 24 hours in duration (FIG. 2).

For a further data set, the target named is T1, PPARα (Homo sapiens, UniProt Q07869).
T1 construct: HepG2 cells transfected with yeast GAL4-PPARα-LBD plasmid+UAS-Luciferase; expressed in transfected cells; host or cells: HepG2
Kind of data set: GAL4-PPARα-LBD luciferase assay in HepG2 cells. It is filed as cell-based. The source says:
(§4) We used a reporter gene assay in HepG2 cells to screen for agonists of the peroxisome proliferator-activated receptors. Peroxisome proliferator-activated receptors (PPARs) and other members of the nuclear hormone receptor family are important drug targets for the treatment of metabolic diseases. PPARs play crucial roles in lipid and glucose metabolism, respectively. Therefore, screening methods that help to rapidly identify activators of these receptors should be of considerable value. INV-75 activated a classic PPARα gene, Acetyl-CoA Oxidase (ACO) in a dose dependent and time dependent fashion (FIG. 6A). The time course experiment was performed in presence of INV-75 up to 15 hours. […] We next tested the specificity of INV-75 for PPARα by performing experiments in HepG2 cells transfected with yeast GAL4-PPARα-LBD plasmid+UAS-Luciferase; GAL4-PPARδ-LBD plasmid+UAS-Luciferase and […]. The PPARα, PPARδ and PPARγ binding assays were performed using multiple concentrations of INV-75 (1 μM, 10 μM, 100 μM and 1000 μM). The level of luciferase activity corresponded to the degree of PPAR activation. The results were compared with classic PPAR agonists such as WY-14643 (PPARα agonist), Bezafibrate (PPARδ agonist) and Rosiglitazone ([…]).

A further data set concerns the target T2, PPARδ (Homo sapiens, UniProt Q03181).
T2 construct: GAL4-PPARδ-LBD plasmid+UAS-Luciferase; expressed in transfected cells; host or cells: HepG2
Kind of data set: GAL4-PPARδ-LBD luciferase assay in HepG2 cells. It counts as cell-based. Particulars: 1 μM to 1000 μM.
Source text: as §4

T1 sequence (Q07869 239-466 limits assumed): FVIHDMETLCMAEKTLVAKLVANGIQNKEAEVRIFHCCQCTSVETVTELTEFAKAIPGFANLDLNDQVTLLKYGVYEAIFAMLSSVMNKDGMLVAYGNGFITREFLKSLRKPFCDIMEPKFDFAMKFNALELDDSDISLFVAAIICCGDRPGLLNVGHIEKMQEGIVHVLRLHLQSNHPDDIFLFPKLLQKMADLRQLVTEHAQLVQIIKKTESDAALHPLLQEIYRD
T2 sequence (Q03181 211-439 limits assumed, species assumed): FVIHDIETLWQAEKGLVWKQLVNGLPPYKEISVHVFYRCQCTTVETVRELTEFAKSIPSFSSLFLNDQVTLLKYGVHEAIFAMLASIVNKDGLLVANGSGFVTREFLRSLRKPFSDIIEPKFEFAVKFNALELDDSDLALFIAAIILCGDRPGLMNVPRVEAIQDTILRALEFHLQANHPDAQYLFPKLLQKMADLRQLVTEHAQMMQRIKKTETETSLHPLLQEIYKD

For `O=C(CCCCC1CCSS1)Oc1cc2c(cc1[N+](=O)[O-])OCO2` (stereo not shown) [INV-7465, 3,4-Methylenedioxy 6-nitro phenyl lipoate], in the data set with Cardiovascular Patient, the “chest pain, shortness of breath” value was “improvement”. Also, in the data set on ICAM-1, the “release of ICAM-1” value is “marked reduction”. Also, the “release of VCAM-1” value in the data set with VCAM-1 is “marked reduction”.
`CC(=O)Oc1cc2c(cc1[N+](=O)[O-])OCO2` [INV-75, 3,4-methylenedioxy-6-nitrophenyl acetate]: the “chest pain, shortness of breath” value with Cardiovascular Patient is given as “improvement”. The “basal super oxide production in the aorta (DHE)” value in data set [1] is reported as “reduction”. The cells displaying toxicity in data set [2] (10 nM) is listed as 2%; in data set [2] (100 nM) it was 4%; in data set [2] (1 μM) it was 8%; in data set [2] (10 μM), 7%; in data set [2] (1 mM), 74%. Further, in the data set with ICAM-1, the “release of ICAM-1” value was “marked reduction”. Further, on PPARα, the “agonist properties on PPARα activation” value is listed as “selective but partial agonist”. On PPARα (1 μM to 1000 μM), the “PPARα ligand binding activity” value is given as “increased”. Moreover, the “release of VCAM-1” value with VCAM-1 is reported as “marked reduction”. For the same compound, at PPARδ, the “effects on PPARδ” value was “without effects”.
Regarding `O=C(CCCCC1CCSS1)Oc1ccc2c(c1)OCO2` (stereo not shown) [INV-7065, 3,4-Methylenedioxy phenyl lipoate], in data set [2] (dose range of 10 nM to 100 μM), the “cell toxicity results compared with those of INV-75” value is reported as “identical”.
